This is an account of results in article PMC6514909, “Synthesis of New Derivatives of Benzofuran as Potential Anticancer Agents” (Molecules, 2019).

Data set [1] deals with healthy endothelial cells (HUVEC). Details: method as in PMID 25482722, PMID 30465514. Conditions: previous studies; cited from earlier work.
The test system of another data set is HeLa cancer cells. More on the design: method as in PMID 25482722, PMID 30465514. Particulars: previous studies; cited from earlier work.
In a further data set the test system is HL-60 leukemic cell line. More on the design: method as in PMID 25482722, PMID 30465514. Particulars: previous studies; cited from earlier work.
The test system of the next data set is K562 leukemic cell line. More on the design: method as in PMID 25482722, PMID 30465514. Particulars: previous studies; cited from earlier work.
Data set [2] relates to HeLa (human cervix carcinoma) cells. The data set can be described thus: MTT cytotoxicity assay, HeLa. Particulars: for IC50: Homo sapiens, HeLa, 48 h incubation with cells, MTT; for reduction of viability of HeLa cells: initial screening, 100 μM, 48 h. The format is cell-based. The protocol: (§1) Fourteen new benzofuran derivatives were tested for their cytotoxic properties in K562, MOLT-4 (leukemia, suspension cells), HeLa (cervix carcinoma, adherent cells), and normal endothelial cells (HUVEC). First, we measured the viability of cells after 48 h incubation with the given compound at the concentration of 100 μM. Next, for compounds that reduced cancer cells survival for more than 50%, we determined IC50 values. Cells that were exposed to 1% DMSO (a vehicle) served as the control with 100% survival. Cells treated with 1 µM staurosporine served as the internal control of the cytotoxicity experiments.
(§2) Human umbilical vein endothelial cells (Life Technologies, Waltham, MA, USA) were cultured (according to the manufacturer instructions) in Medium 200 supplemented with Low Serum Growth Supplement. 1 × 10^4 HUVEC cells were seeded on each well on a 96-well plate (Nunc). The HeLa (human cervix carcinoma) K562 and MOLT-4 (leukemia) cells were cultured in RPMI 1640 medium supplemented with antibiotics and 10% fetal calf serum (HeLa, K562) in a 5% CO2-95% air atmosphere. 7 × 10^3 HeLa, K562, or MOLT-4 cells were seeded on each well on 96-well plate (Nunc). 24 h later cells were treated with the test compounds and then incubated for an additional 48 hours. Stock solutions of test compounds were freshly prepared in DMSO (dimethylsulfoxide). The final concentrations of compounds that were tested in the cell cultures were: 2 × 10^−1, 1 ×10^−1, 5 × 10^−2, 1 × 10^−2, 1 × 10^−3 and 1 × 10^−4 mM. The concentration of DMSO in the cell culture medium was 1%.
(§3) The values of IC50 (the concentration of test compound that is required to reduce the cell survival fraction to 50% of the control) were calculated from dose-response curves and used as a measure of cellular sensitivity to a given treatment.
(§4) The MTT [3-(4,5-dimethylthiazol-2-yl)-2,5-diphenyltetrazolium bromide; Sigma, St. Louis, MO, USA] assay determined the cytotoxicity of all the compounds, as described previously. Briefly, after 24 h or 48 h of incubation with the drug, the cells were treated with the MTT reagent, and incubation was continued for 2 h. MTT-formazan crystals were dissolved in 20% SDS and 50% DMF at pH 4.7 and absorbance was read at 570 and 650 nm on an ELISA-PLATE READER (FLUOstar Omega, BMG LABTECH GmbH, Ortenberg, Germany). As a control (100% viability), cells that were grown in the presence of medium vehicle only with 1% DMSO were used.

Data set [3] deals with caspase 3/7 in K562 cells. The data set can be described thus: Apo-ONE Homogeneous Caspase-3/7 Assay in K562 cells. The format is cell-based, human. Conditions: compound at 5 × IC50 (staurosporine 1 µM), 18 h, 1% DMSO normalized to 1.0. The protocol: We have measured the activity of caspases 3 and 7 (caspase 3/7), which are markers of programmed cell death. […] The activity of caspase 3/7 was measured using pro-fluorescent peptide substrate.
20 × 10^3 K562 cells were seeded on each well of 96-well plate in RPMI 1640 medium supplemented with 10% fetal calf serum and antibiotics. Cells were grown for 24 h at 37 °C and 5% CO2. The test compounds were dissolved in DMSO and added to the cell culture. The concentration of tested benzo[b]furans in cell culture was 5 × IC50.
Cells treated with 1% DMSO served as a negative control, while cells incubated with staurosporine (a strong inducer of apoptosis) were used as a positive control. Cells were exposed to test compounds for 18 h at 37 °C and 5% CO2. Subsequently, Apo-ONE® Homogeneous Caspase-3/7 Assay (Promega, Madison, WI, USA) measured the activity of caspase 3 and 7, according to the manufacturer’s instructions. Briefly, the cells were lysed and incubated for 1.5 h with profluorescent substrate for caspase 3 and 7. Next, fluorescence was read at an excitation wavelength of 485 nm and emission of 520 nm with FLUOStar Omega plate reader (BMG-Labtech, Ortenberg, Germany).
Figure 5 Activity of caspase 3 and 7 in K562 cells treated with the test benzofurans 1c, 1e, 2d, 3d, or staurosporine for 18 h. Apoptosis was determined by Apo-ONE® Homogeneous Caspase-3/7 Assay (Promega, Madison, WI, USA). Abbreviations: DMSO—K562 cells treated with 1% DMSO. The caspase activation level in cells exposed to 1% DMSO was normalized to 1.0. Mean values +/− SD are shown.

Data set [4] has as its system plasmid DNA (pcDNA3.1 HisC). The data set can be described thus: Digestion of plasmid DNA with BamHI restriction nuclease. The data set is classed as biochemical. Particulars: 100 µM, overnight 37 °C, then BamHI 3 h; agarose gel. An excerpt:
We hypothesized that a possible explanation of observed cytotoxicity might be due to an interaction of test benzofurans with genomic DNA (e.g., by intercalation). To verify this hypothesis, we investigated whether the test benzofurans have any effect on digestion of a plasmid DNA (pcDNA3.1 HisC) with endonuclease BamH1. pcDNA3.1 HisC contains a unique BamH1 restriction site which allows for plasmid linearization. Plasmid DNA exists in linear, superhelical, and circular forms that differ in electrophoretic mobility (Figure 6 lane 1). Plasmid DNA was converted to a linear form upon digestion with BamH1 (lane 2). […] In the presence of test compounds, pcDNA3.1 HisC was partially digested with Bam H1 restriction enzyme (Figure 6 lanes 4–7). Most of the plasmid DNA was converted to a linear form, however there is a circular form still present.
0.5 μg of plasmid DNA (pcDNAHisC, total length 5.5 kbp) containing a unique BamHI restriction site was dissolved in a 1× BamHI reaction buffer and then incubated overnight at 37 °C with the test compounds or daunorubicin, a strong intercalating agent, which was used as a positive control. The concentration of the test compounds and daunorubicin samples was 100 µM. In the next step, the reaction mixtures were digested with BamHI restriction endonuclease (2 U/μL) for 3 h at 37 °C. The total reaction volume was 10 μL. Products of the reaction were subjected to the 1% agarose gel electrophoresis in TBE buffer. The gel was stained with ethidium bromide and DNA fragments were visualized under a UV lamp (GBox, Syngene, Cambridge, UK).
Figure 6 Digestion of pcDNA3.1HisC (total length 5.5kbp) with BamH1 endonuclease. M—marker DNA; 1—not digested plasmid DNA; 2—plasmid DNA digested with BamH1 (DNA present in linear form); 3—plasmid DNA + daunorubicin + BamH1; 4—plasmid DNA + 1c + BamH1; 5—plasmid DNA + 2d + BamH1; 6—plasmid DNA + 1e + BamH1; and, 7—plasmid DNA + 3d + BamH1.

In the next data set the test system is K562 (leukemia) cells. The data set is described as follows: MTT cytotoxicity assay, K562. The format is cell-based, human. Particulars: for reduction of viability of K562 cells: initial screening, 100 μM, 48 h; for IC50: 48 h incubation with cells, MTT. The protocol:
as §1, §2, §3, §4
(Tetrazolium dyes change colour on reduction, which living cells bring about.)

Another data set concerns MOLT-4 (leukemia) cells. The data set can be described thus: MTT cytotoxicity assay, MOLT-4. The format is cell-based, human. Conditions: for IC50: Homo sapiens, MOLT-4, 48 h incubation with cells, MTT; for reduction of viability of MOLT-4 cells: initial screening, 100 μM, 48 h. The protocol: as §1, §2, §3, §4
In another data set the test system is cancer cell lines. The data set can be described thus: MTT cytotoxicity, cancer cell lines overall. The format is cell-based, human. Particulars: compared to lead compounds VIII-X. The protocol:
as §1, §2, §3, §4

Data set [5] has as its system Human umbilical vein endothelial cells (HUVEC). The data set is described as follows: MTT cytotoxicity assay, HUVEC. Particulars: for IC50: Homo sapiens, HUVEC, 48 h incubation with cells, MTT; for cytotoxicity against human normal endothelial cells: initial screening, 100 μM, 48 h. The data set is classed as cell-based. The protocol: as §1, §2, §3, §4
The test system of a further data set is cancer cells. Details: method as in PMID 25482722, PMID 30465514. Particulars: previous studies; cited from earlier work.

As for `COc1cc2c(CBr)c(C(C)=O)oc2c(C(C)=O)c1OC` [VIII], the IC50 (commonly the point on the concentration scale where inhibition reaches its midpoint) was above 1000 µM in [1], above 1000 µM in the data set with HeLa cancer cells, 0.1 µM with HL-60 leukemic cell line and 5 µM in the data set on K562 leukemic cell line.

As to `COC(=O)c1c(CBr)oc2cc(C(C)=O)c(O)cc12` [Compound 2d, Methyl 6-acetyl-2-(bromomethyl)-5-hydroxybenzofuran-3-carboxylate], in [2], the IC50 was 35 µM and the “reduction of viability of HeLa cells” value was “more than 50%”. Further, the “increase in the activity of caspase 3/7” value in [3] was “about two-fold”. Moreover, the “inhibition of digestion of plasmid DNA with BamH1 / interaction with DNA” value in data set [4] is recorded as “to some extent, interact with DNA”. In addition, in the data set with K562 (leukemia) cells, the “reduction of viability of K562 cells” value is “more than 50%”. In the data set with MOLT-4 (leukemia) cells, the IC50 was found to be 35 µM and the “reduction of viability of MOLT-4 cells” value is on record as “more than 50%”. For the same compound, the “decrease of cytotoxicity against human cancer cells compared to the lead compounds VIII-X” value in the data set on cancer cell lines was 5–10 folds. Also, in data set [5], the IC50 was found to be 30 µM and the “cytotoxicity against human normal endothelial cells” value is recorded as “cytotoxic”.

Turning to `COC(=O)c1c(C)oc2cc(C(=O)C(Br)Br)c(OC)cc12` [X, methyl 6-(dibromoacetyl)-5-methoxy-2-methylbenzofuran-3-carboxylate], in data set [1], the “toxicity towards endothelial cells (HUVEC)” value was “non-toxic”. Also, in the data set on cancer cells, the “IC50 towards cancer cells” value is given as “in a few µM range”.

Regarding `COC(=O)c1c(C)oc2cc(C(=O)C(Br)Br)c(O)c(Br)c12` [IX], the “toxicity towards endothelial cells (HUVEC)” value in [1] was “non-toxic”. Moreover, in the data set with cancer cells, the “IC50 towards cancer cells” value is “in a few µM range”.

Regarding `COC(=O)c1oc2c(C(C)=O)c(OC)c(OC)cc2c1CBr` [Compound 1c, Methyl 7-acetyl-3-(bromomethyl)-5,6-dimethoxybenzofuran-2-carboxylate], in data set [2], the half-maximal inhibitory concentration (IC50) amounted to 50 µM and the “reduction of viability of HeLa cells” value was “more than 50%”. Also, the “increase in the activity of caspase 3/7” value in [3] is “about two-fold”. Also, the “inhibition of digestion of plasmid DNA with BamH1 / interaction with DNA” value in data set [4] is “to some extent, interact with DNA”. In addition, in the data set on K562 (leukemia) cells, the IC50 was determined as 25 µM and the “reduction of viability of K562 cells” value was “more than 50%”. In the data set on K562 (leukemia) cells (Homo sapiens, K562, 48 h), this compound returned a 50% inhibitory concentration (IC50) below 50 µM. Further, in the data set with MOLT-4 (leukemia) cells, half-maximal inhibition (IC50) required 180 µM and the “reduction of viability of MOLT-4 cells” value is listed as “more than 50%”. In data set [5], the IC50 came out at 30 µM and the “cytotoxicity against human normal endothelial cells” value is “cytotoxic”.
